Assay results reported in patent US9675592B2, “Methods and compositions for bacteria infections” (priority 2013, dated 2017).
Where two headings read alike, the source gives them in different places.

Experiments:
[1] = test system: test strain 923 pPvra-lux (USA300 MRSA); experiment: Primary screen, relative growth in presence of oxacillin; settings: compound 10 μM with oxacillin 2 μg/mL, absorbance 24 h, <0.50 = dead cells = hit
[2] = test system: vraSR promoter (Pvra-lux reporter in strain 923); experiment: Primary screen, relative luminescence (vraSR expression)
[3] = primary screen, compound 10 μM with oxacillin 2 μg/mL, <0.50 = vraSR repressed = hit

Row | Structure (SMILES) | RG avg (relative growth) [1] | RL avg (relative luminescence) [2, 3] | RL avg (relative luminescence) [2]
1 | CCOc1cc(C(=O)Nc2nnc(-c3ccccc3SC)o2)cc(OCC)c1OCC [F2645-99] | 0.09 | 0.43 | –
2 | O=C(Nc1nnc(-c2ccc3c(c2)CCCC3)o1)c1sc2ccccc2c1Cl [F0608-665] | 0.19 | −0.01 | –
3 | CC1CC(C)CN(S(=O)(=O)c2ccc(C(=O)Nc3nnc(-c4ccc(F)cc4)o3)cc2)C1 (stereo not drawn) [F0559-106] | −0.07 | −0.07 | –
4 | O=C(Nc1nnc(-c2ccc3c(c2)CCCC3)o1)c1ccc(S(=O)(=O)N2CCOCC2)cc1 [F0608-560] | −0.07 | −0.07 | –
5 | COc1ccccc1-c1nnc(NC(=O)c2ccc(-c3ccccc3)cc2)o1 [F1374-220] | 0.01 | 0.35 | –
6 | CCOc1ccc(-c2nnc(NC(=O)c3c(-c4ccccc4Cl)noc3C)o2)cc1 [F2517-329] | −0.02 | −0.11 | –
7 | Cc1ccc(C)c(-c2nnc(NC(=O)c3cccc(F)c3)o2)c1 [F2518-301] | −0.01 | −0.10 | –
8 | O=C(Nc1nnc(-c2ccc3c(c2)CCCC3)o1)c1ccc(Cl)s1 [F0608-662] | −0.07 | −0.10 | –
9 | O=C(Nc1nnc(-c2ccc3c(c2)CCCC3)o1)c1ccc2c(c1)OCCO2 [F0608-601] | −0.05 | −0.12 | –
10 | CC1(C)COCN1S(=O)(=O)c1ccc(C(=O)Nc2nnc(-c3ccc(Cl)s3)o2)cc1 [F0559-390] | −0.06 | −0.11 | –
11 | CC(C)n1nccc1C(=O)Nc1nnc(-c2cc(Cl)sc2Cl)o1 [F1374-2902] | 0.00 | 0.33 | –
12 | CCN(c1ccccc1)S(=O)(=O)c1ccc(C(=O)Nc2nnc(-c3ccccc3SC)o2)cc1 [F2645-115] | 0.13 | 0.45 | –
13 | Cc1onc(-c2ccccc2Cl)c1C(=O)Nc1nnc(-c2cc(Cl)sc2Cl)o1 [F1374-2706] | 0.02 | 0.25 | –
14 | COc1cc(-c2nnc(NC(=O)c3cccc(Br)c3)o2)cc(OC)c1OC [F2517-14] | −0.03 | −0.07 | –
15 | O=C(Nc1nnc(-c2ccc3c(c2)CCCC3)o1)c1cc(Cl)sc1Cl [F0608-668] | 0.02 | −0.06 | –
16 | O=C(COc1ccc(Cl)cc1)Nc1nnc(-c2ccc3c(c2)CCCC3)o1 [F0608-664] | −0.04 | −0.01 | –
17 | O=C(Nc1nnc(-c2cccnc2)o1)c1cccc(Br)c1 [F0608-950] | −0.01 | −0.14 | –
18 | O=C(Nc1nnc(-c2ccncc2)o1)c1ccc(-c2ccccc2)cc1 [F0608-1080] | 0.03 | −0.04 | –
19 | O=C(Nc1nnc(C2=COCCO2)o1)c1cc(Cl)cc(Cl)c1 [F0608-258] | −0.05 | −0.06 | –
20 | O=C(Nc1nnc(-c2ccccc2)o1)c1ccc(Br)s1 [F1374-875] | 0.04 | 0.30 | –

Row | Structure (SMILES) | RG avg (relative growth) [1] | RL avg (relative luminescence) [2, 3] | RL avg (relative luminescence) [2]
21 | O=C(Nc1nnc(-c2ccccc2Cl)o1)c1cccc(Br)c1 [F1374-14] | 0.24 | 0.38 | –
22 | COc1ccc(-c2nnc(NC(=O)c3cccc(C(F)(F)F)c3)o2)c(OC)c1 [F1374-562] | 0.02 | 0.38 | –
23 | COc1ccc(-c2nnc(NC(=O)c3ccc(C(=O)c4ccccc4)cc3)o2)cc1 [F1374-443] | 0.05 | 0.39 | –
24 | COc1ccccc1-c1nnc(NC(=O)c2sc3ccccc3c2Cl)o1 [F1374-253] | 0.04 | 0.32 | –
25 | CC1CN(S(=O)(=O)c2ccc(C(=O)Nc3nnc(-c4ccc(Cl)s4)o3)cc2)CC(C)O1 (stereo not drawn) [F0559-377] | −0.08 | −0.09 | –
26 | COc1cc(OC)cc(-c2nnc(NC(=O)c3ccc(S(=O)(=O)N(CC(C)C)CC(C)C)cc3)o2)c1 [F0559-264] | −0.04 | −0.10 | –
27 | COc1cccc(-c2nnc(NC(=O)c3cccc(C(F)(F)F)c3)o2)c1 [F1374-352] | 0.03 | 0.41 | –
28 | Cc1ccc(-c2nnc(NC(=O)c3ccc(S(=O)(=O)N4CCCCC4C)cc3)o2)c(C)c1 (stereo not drawn) [F2518-228] | 0.00 | −0.14 | –
29 | CCOc1ccc(C(=O)Nc2nnc(-c3ccc(Cl)s3)o2)cc1 [F1374-1129] | 0.00 | – | 0.47
30 | CC1CC(C)CN(S(=O)(=O)c2ccc(C(=O)Nc3nnc(-c4ccc(Cl)s4)o3)cc2)C1 (stereo not drawn) [F0559-376] | −0.08 | −0.02 | –
31 | COc1cccc(-c2nnc(NC(=O)c3ccc(S(=O)(=O)N(Cc4ccccc4)C(C)C)cc3)o2)c1 [F0559-178] | −0.06 | −0.07 | –
32 | Cc1ccc(C)c(-c2nnc(NC(=O)c3ccc(S(=O)(=O)N4CC(C)OC(C)C4)cc3)o2)c1 (stereo not drawn) [F2518-334] | 0.00 | −0.04 | –
33 | COc1cccc2cc(-c3nnc(NC(=O)c4nc5ccccc5s4)o3)oc12 [F2273-37] | 0.09 | 0.09 | –
34 | CCN(CC)S(=O)(=O)c1ccc(C(=O)Nc2nnc(-c3ccc4c(c3)CCCC4)o2)cc1 [F0608-543] | −0.02 | −0.08 | –
35 | O=C(Nc1nnc(-c2ccc(F)cc2)o1)c1ccc(Br)s1 [F1374-140] | 0.02 | 0.35 | –
36 | COc1ccc(-c2nnc(NC(=O)c3ccc(S(=O)(=O)N(C)Cc4ccccc4)cc3)o2)c(OC)c1 [F0559-398] | −0.07 | −0.11 | –
37 | COc1cccc(-c2nnc(NC(=O)c3ccc(S(=O)(=O)N(C)C4CCCCC4)cc3)o2)c1 [F0559-158] | 0.03 | −0.07 | –
38 | O=C(Nc1nnc(-c2cc3ccccc3o2)o1)c1nc2ccccc2s1 [F2273-415] | 0.27 | 0.22 | –
39 | COc1cc(-c2nnc(NC(=O)c3ccc(S(=O)(=O)N(Cc4ccccc4)C(C)C)cc3)o2)cc(OC)c1OC [F0559-328] | 0.15 | 0.01 | –
40 | O=C(Nc1nc(-c2ccccn2)cs1)c1cc(Cl)ccc1Cl [F0447-277] | −0.06 | −0.11 | –

Row | Structure (SMILES) | RG avg (relative growth) [1] | RL avg (relative luminescence) [2, 3] | RL avg (relative luminescence) [2]
41 | Cc1ccc(C)c(-c2nnc(NC(=O)c3ccc(S(=O)(=O)N4CCCc5ccccc54)cc3)o2)c1 [F2518-342] | 0.00 | −0.02 | –
42 | O=C(Nc1nnc(-c2ccco2)o1)c1ccc(-c2ccccc2)cc1 [F0608-410] | −0.07 | −0.07 | –
43 | O=C(Nc1nnc(-c2cc(Cl)sc2Cl)o1)c1cccc(C(F)(F)F)c1 [F1374-2671] | 0.03 | 0.35 | –
44 | COc1ccccc1-c1nnc(NC(=O)c2ccc(S(=O)(=O)N(Cc3ccccc3)C(C)C)cc2)o1 [F0559-148] | 0.02 | −0.04 | –
45 | CSc1ccccc1-c1nnc(NC(=O)c2cc(Cl)sc2Cl)o1 [F2645-67] | 0.02 | 0.37 | –
46 | COc1cccc2cc(C(=O)Nc3nnc(-c4ccc(Cl)cc4Cl)o3)oc12 [F2518-1563] | 0.00 | −0.16 | –
47 | O=C(Nc1nnc(-c2ccccn2)o1)c1cc(Cl)cc(Cl)c1 [F0608-928] | −0.01 | 0.07 | –
48 | COc1ccccc1-c1nnc(NC(=O)c2cc(-c3cccs3)nc3ccccc23)o1 [F1374-255] | 0.00 | 0.36 | –
49 | O=C(Nc1nnc(-c2cc(Cl)sc2Cl)o1)c1ccc(F)cc1F [F1374-2707] | 0.00 | 0.32 | –
50 | CC1CCCCN1S(=O)(=O)c1ccc(C(=O)Nc2nnc(C3COc4ccccc4O3)o2)cc1 (stereo not drawn) [F0608-741] | −0.02 | −0.04 | –
51 | CCN(Cc1ccccc1)S(=O)(=O)c1ccc(C(=O)Nc2nnc(-c3ccc(OC)cc3)o2)cc1 [F0559-206] | 0.19 | −0.11 | –
52 | O=C(Nc1nnc(-c2ccco2)o1)c1cc(-c2ccccc2)nc2ccccc12 [F0608-448] | 0.19 | −0.04 | –
53 | O=C(Nc1nnc(Cc2ccccc2)o1)c1cc(Cl)sc1Cl [F2368-63] | −0.01 | −0.02 | –
54 | O=C(Nc1nnc(-c2ccc(Cl)cc2)o1)c1cccs1 [F1374-757] | 0.02 | 0.29 | –
55 | COc1ccccc1-c1nnc(NC(=O)c2cccc(Br)c2)o1 [F1374-224] | −0.01 | 0.34 | –
56 | O=C(Nc1nnc(-c2ccc3c(c2)CCCC3)o1)c1cccs1 [F0608-554] | −0.04 | −0.08 | –
57 | O=C(Nc1nnc(-c2ccc(F)cc2)o1)c1ccc(F)cc1 [F1374-116] | 0.00 | 0.34 | –
58 | O=C(Nc1nnc(-c2ccc(Br)cc2)o1)c1sc2ccccc2c1Cl [F2518-484] | 0.02 | 0.02 | –
59 | O=C(Nc1nnc(-c2cc3ccccc3o2)o1)c1ccc(F)cc1 [F2273-390] | 0.27 | 0.20 | –
60 | Cc1ccc(-c2nnc(NC(=O)c3ccc(S(=O)(=O)N4CCCCC4)cc3)o2)cc1C [F2767-26] | 0.03 | −0.05 | –
